{"source": "patent US20210338548A1", "about": "“Mint Flavor Compositions” (The Procter & Gamble Company, priority 2020, published 2021)", "key": {"[1]": {"assay": "Expert sensory testing of racemic menthol vs (−)-menthol in toothpaste (CREST Cavity) with standard spearmint flavor", "type": "in vivo", "procedure": "In separate, unpublished internal experiments, perceptual experiences of racemic menthol are quantified via expert sensory testing. The use of a standard spearmint flavor (minimizing extra menthol contribution) compared racemic menthol to (−)-menthol in a toothpaste formulation (CREST Cavity). There are several sensory observations taken from these experiments. […] These aromatic notes appear during brushing and disappear after 5-10 minutes post expectoration and are more pronounced as concentrations increase."}, "[2]": {"assay": "Comparison of cooling attributes of (−)-menthol and racemic menthol in toothpaste (CREST Cavity formulation)", "type": "in vivo", "text": "The following data helps support the use of racemic menthol to reduce costs of mint flavor compositions herein described. From internal unpublished research, Table B compares replacing (−)-menthol with a racemic menthol in a 1:1 in a toothpaste formulation. Such a direct replacement is not preferred given the reduced cooling profile and olfactory differences; however, a portion of L-menthol is preferably replaced by racemic-menthol to gain cost efficiency while minimizing impact to the overall mint flavor profiles.\nTable B is a comparison of attributes between (−)-menthol and racemic menthol in a toothpaste context (using CREST Cavity formulation).\nThis value represents the concentration of a coolant where 50% of its maximal cooling is observed."}}, "data": [{"smiles": "CC1CCC(C(C)C)C(O)C1", "note": "(racemic) [Racemic Menthol]", "values": [{"measurement": "less potent than (−)-menthol for cooling", "setting": "[1]", "value": "25-30%"}, {"measurement": "Maximum Longevity", "setting": "[2]", "value": "Up to 20 minutes"}, {"measurement": "Potency compared to L-Menthol", "setting": "[2]", "value": "~0.65-0.7x"}, {"measurement": "Time Point at Maximum Cooling", "setting": "[2]", "value": "~1", "unit": "min"}, {"measurement": "Maximum Cooling (0-60 scale)", "setting": "[2]; 60 = greatest amount of cooling, 0 = least", "value": 35}, {"measurement": "EC 50", "setting": "[2]; concentration of coolant giving 50% of its maximal cooling", "value": "1,250 to 1,500 parts per million"}]}]}
